Consider 13 compounds from ChEMBL document CHEMBL3714732, “Small molecule modulators of g protein-coupled receptor six” (2001).

The source made the active and inactive calls. The calls are words filed in the database; no cut-off is given here.

Data set [1] addresses T1, G-protein coupled receptor 6 (Homo sapiens, UniProt P46095). Put plainly: Inverse agonist activity at rat G-protein GSalpha fused GPR6 (unknown origin) expressed in HEK293 cell membranes assessed as cAMP accumulation pre-incubated for 30 mins by microbeta plate reader based assay. It is filed as functional. For orientation: cAMP levels reflect the balance of adenylyl cyclase and phosphodiesterase activity.

The target in data set [2] is T1, G-protein coupled receptor 6. Briefly: Inverse agonist activity at rat G-protein GSalpha fused GPR6 (unknown origin) expressed in HEK293 cell membranes assessed as effect on [35S]GTPgammaS binding pre-incubated for 5 to 10 mins followed by 60 mins incubation in presence of [35S]GTPgammaS by scintillation proximity assay. It is filed as functional.
The test system of data set [3] is Rattus norvegicus. Put plainly: Reduction in water intake in 24 hrs food-deprived Sprague-Dawley rat assessed as water intake level at 100 umol/kg, po followed by standard chow pellets feeding and measured 6 hrs post dose (reference value: 19.25 to 22.9g). It is filed as functional.
Data set [4] deals with Rattus norvegicus. Briefly: Reduction in water intake in 24 hrs food-deprived Sprague-Dawley rat assessed as water intake level at 100 umol/kg, po followed by standard chow pellets feeding and measured 8 hrs post dose (reference value: 19g). It counts as functional.
The subject of data set [5] is Rattus norvegicus. Briefly: Reduction in body weight gain in 24 hrs food-deprived Sprague-Dawley rat assessed as body weight at 100 umol/kg, po followed by standard chow pellets feeding and measured 8 hrs post dose (reference value: 19.5g). It is filed as functional.
Data set [6] has as its system Rattus norvegicus. Briefly: Reduction in food intake in 24 hrs food-deprived Sprague-Dawley rat assessed as food intake level at 100 umol/kg, po followed by standard chow pellets feeding and measured 8 hrs post dose (reference value: 14 to 14.5g). It counts as functional.
The test system of data set [7] is Rattus norvegicus. Put plainly: Reduction in food intake in 24 hrs food-deprived Sprague-Dawley rat assessed as food intake level per 2 hrs at 100 umol/kg, po followed by standard chow pellets feeding and measured 8 hrs post dose (reference value: 2 to 2.5g/2 hrs). It counts as functional.
The test system of data set [8] is Rattus norvegicus. Briefly: Reduction in body weight gain in 24 hrs food-deprived Sprague-Dawley rat assessed as body weight gain level at 100 umol/kg, po followed by standard chow pellets feeding and measured 6 hrs post dose (reference value: 19.25 to 20.3g). It is filed as functional.
The species named for data set [9] is Rattus norvegicus. Put plainly: Effect on motor function in Sprague-Dawley rat assessed as effect on locomotor activity for 1.5 hrs tested immediately after compound dose. It is filed as organism-based. The note with it: in vivo.
The subject of data set [10] is Rattus norvegicus. Briefly: Reduction in food intake in 24 hrs food-deprived Sprague-Dawley rat assessed as food intake level at 27 mg/kg, po followed by standard chow pellets feeding and measured 2.5 hrs post dose (reference value: 6g). It is filed as functional.
For data set [11], the system named is Rattus norvegicus. Briefly: Reduction in water intake in 24 hrs food-deprived Sprague-Dawley rat assessed as at 27 mg/kg, ip followed by standard chow pellets feeding and measured 6.5 hrs post dose relative to control. It is filed as functional.
Data set [12] relates to Rattus norvegicus. Put plainly: Reduction in water intake in 24 hrs food-deprived Sprague-Dawley rat at 54 mg/kg, ip followed by standard chow pellets feeding and measured 6.5 hrs post dose relative to control. It is filed as functional.
In data set [13] the test system is Rattus norvegicus. Put plainly: Induction of sedation in non-food-deprived Sprague-Dawley rat subjected to pre-pulse of 12 db followed by 120 db pulse assessed as animal jump height level at 13.5 and 54 mg/kg, po dosed 4.5 hrs before test. It counts as organism-based. The following applies: in vivo.
Data set [14] relates to Rattus norvegicus. Put plainly: Reduction in food intake in 24 hrs food-deprived Sprague-Dawley rat at 25 to 100 nmol, icv measured after 2 hrs post dose. It counts as functional.
For data set [15], the system named is Rattus norvegicus. Briefly: Reduction in food intake in 24 hrs food-deprived Sprague-Dawley rat assessed as food intake level at 54 mg/kg, po followed by standard chow pellets feeding and measured 8 hrs post dose (reference value: 14g). It is filed as functional.
Data set [16] concerns Rattus norvegicus. Put plainly: Reduction in food intake in 24 hrs food-deprived Sprague-Dawley rat assessed as food intake level at 54 mg/kg, po followed by standard chow pellets feeding and measured 2.5 hrs post dose (reference value: 6g). It is filed as functional.
For data set [17], the system named is Rattus norvegicus. Put plainly: Reduction in body weight gain in non-food-deprived Sprague-Dawley rat at 13.5 mg/kg, ip qd for 22 days measured between day-4 and day-31 post dose. It counts as functional, organism-based.
Data set [18] relates to Rattus norvegicus. Briefly: Reduction in body weight gain in non-food-deprived Sprague-Dawley rat at 13.5 mg/kg, ip qd for 22 days measured on day-1 and day-3 post dose. It is filed as functional, organism-based.
Data set [19] has as its system Rattus norvegicus. Put plainly: Reduction in water intake in non-food-deprived Sprague-Dawley rat at 6.75 to 54 mg/kg, ip dosed 30 mins before beginning of dark cycle followed by exposure to standard chow pellets and measured 15.5 hrs post dose. It is filed as functional, organism-based.
In data set [20] the test system is Rattus norvegicus. Briefly: Reduction in body weight gain in 24 hrs food-deprived Sprague-Dawley rat assessed as body weight level at 13.5 mg/kg, ip followed by standard chow pellets feeding and measured 6.5 hrs post dose (reference value: 20g). It is filed as functional.
Data set [21] has as its system Rattus norvegicus. Put plainly: Induction of sedation in ip dosed Sprague-Dawley rat assessed as absence of anxiety like behavior after 16 hrs post dose. It counts as organism-based. The note with it: in vivo.
The test system of data set [22] is Rattus norvegicus. Put plainly: Reduction in body weight gain in non-food-deprived Sprague-Dawley rat at 6.75 to 54 mg/kg, ip dosed 30 mins before beginning of dark cycle followed by exposure to standard chow pellets and measured 15.5 hrs post dose. It counts as functional, organism-based.
The subject of data set [23] is Rattus norvegicus. Briefly: Induction of sedation in non-food-deprived Sprague-Dawley rat subjected to pre-pulse of 12 db followed by 120 db pulse assessed as animal jump height level at 6.75 mg/kg, po dosed 4.5 hrs before test. It is filed as organism-based. The following applies: in vivo.
Data set [24] deals with Rattus norvegicus. Put plainly: Reduction in body weight gain in 24 hrs food-deprived Sprague-Dawley rat assessed as body weight level at 27 mg/kg, ip followed by standard chow pellets feeding and measured 6.5 hrs post dose. It counts as functional, organism-based.
The subject of data set [25] is Rattus norvegicus. Briefly: Reduction in water intake in 24 hrs food-deprived Sprague-Dawley rat at 100 nmol, icv. It is filed as functional.
In data set [26] the test system is Rattus norvegicus. Briefly: Reduction in food intake in non-food-deprived Sprague-Dawley rat assessed as food intake level at 54 mg/kg, ip dosed 30 mins before beginning of dark cycle followed by exposure to standard chow pellets and measured 4 hrs post dose (reference value: 9g). It is filed as functional.
The test system of data set [27] is Rattus norvegicus. Briefly: Induction of sedation in ip dosed Sprague-Dawley rat assessed as relaxed behavior after 16 hrs post dose. It is filed as organism-based. The note with it: in vivo.
The test system of data set [28] is Rattus norvegicus. Put plainly: Reduction in food intake in 24 hrs food-deprived Sprague-Dawley rat assessed food intake level at 25 to 100 nmol, icv measured 3 hrs post dose (reference value: 2.5g). It is filed as functional.
The subject of data set [29] is Rattus norvegicus. Put plainly: Reduction in body weight gain in non-food-deprived Sprague-Dawley rat at 13.5 mg/kg, ip qd for 22 days measured between day-31 and day-60 post dose. It counts as functional, organism-based.
Data set [30] relates to Rattus norvegicus. Put plainly: Reduction in food intake in non-food-deprived Sprague-Dawley rat assessed as food intake level at 6.5 to 54 mg/kg, po followed by standard chow pellets feeding and measured 18 hrs post dose (reference value: 15g). It counts as functional.
In data set [31] the test system is Rattus norvegicus. Put plainly: Reduction in food intake in 24 hrs food-deprived Sprague-Dawley rat dosed orally followed by standard chow pellets feeding. It counts as functional, organism-based.
The test system of data set [32] is Rattus norvegicus. Briefly: Reduction in food intake in 24 hrs food-deprived Sprague-Dawley rat assessed as food intake level at 27 mg/kg, po followed by standard chow pellets feeding and measured 8 hrs post dose (reference value: 14g). It counts as functional.
Data set [33] has as its system Rattus norvegicus. Put plainly: Reduction in food intake in non-food-deprived Sprague-Dawley rat at 6.5 to 54 mg/kg, po followed by standard chow pellets feeding and measured 18 hrs post dose relative to control. It counts as functional.
For data set [34], the system named is Rattus norvegicus. Briefly: Reduction in food intake in non-food-deprived Sprague-Dawley rat assessed as food intake level at 13.5 mg/kg, ip dosed 30 mins before beginning of dark cycle followed by exposure to standard chow pellets and measured 4 hrs post dose (reference value: 9g). It is filed as functional.
For data set [35], the system named is Rattus norvegicus. Briefly: Reduction in body weight gain in 24 hrs food-deprived Sprague-Dawley rat assessed as body weight level at 54 mg/kg, ip followed by standard chow pellets feeding and measured 6.5 hrs post dose. It counts as functional, organism-based.
Data set [36] concerns Rattus norvegicus. Briefly: Reduction in water intake in 24 hrs food-deprived Sprague-Dawley rat assessed water intake level at 25 and 50 nmol, icv (reference value: 17 g). It counts as functional.
The test system of data set [37] is Rattus norvegicus. Briefly: Reduction in food intake in 24 hrs food-deprived Sprague-Dawley rat assessed as food intake level at 54 mg/kg, ip followed by standard chow pellets feeding and measured 1.5 hrs post dose (reference value: 6g). It is filed as functional.
For data set [38], the system named is Rattus norvegicus. Briefly: Reduction in body weight gain in 24 hrs food-deprived Sprague-Dawley rat assessed body weight gain intake level at 100 nmol, icv (reference value: 12g). It counts as functional.
The subject of data set [39] is Rattus norvegicus. Put plainly: Reduction in food intake in 24 hrs food-deprived Sprague-Dawley rat assessed as food intake level at 54 mg/kg, ip followed by standard chow pellets feeding and measured 6.5 hrs post dose (reference value: =<14g). It is filed as functional.

T1 sequence (P46095 whole entry, the tested form may be a part): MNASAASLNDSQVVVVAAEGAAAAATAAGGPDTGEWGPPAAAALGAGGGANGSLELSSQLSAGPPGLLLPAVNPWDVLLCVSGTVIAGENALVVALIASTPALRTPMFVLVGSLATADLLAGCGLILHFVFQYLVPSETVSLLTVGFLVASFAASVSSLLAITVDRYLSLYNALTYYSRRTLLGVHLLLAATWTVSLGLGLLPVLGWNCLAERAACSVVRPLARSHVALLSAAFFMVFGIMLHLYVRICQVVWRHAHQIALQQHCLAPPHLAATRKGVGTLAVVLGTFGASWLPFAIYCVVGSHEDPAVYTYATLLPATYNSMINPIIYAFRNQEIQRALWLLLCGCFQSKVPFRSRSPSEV

Take `O=C(/N=C1\SSC2=NCCN21)c1cccnc1`: the IC50 in data set [1] came out at 133 nM; in [2], 670 nM.
For the compound `Cc1cccc(C(=O)/N=C2\SSC3=NCCN32)c1`, the IC50 in data set [1] was 140 nM; in data set [2], 790 nM.
With `CC(C)(C)c1ccc(C(=O)/N=C2\SSC3=NCCN32)cc1`, the IC50 was determined as 370 nM in data set [1] and 650 nM in data set [2].
For `O=C(NC(=S)N1CCNC1=S)c1ccno1` the same measures were 5830 nM and 2430 nM.
Turning to `O=C(/N=C1\SSC2=NCCN21)c1cccc(F)c1`, the figures for the IC50 in [1] and in data set [2] were 240 nM and 220 nM, respectively. Further, the Activity was 9.5 g in the data set with Rattus norvegicus [3]; 10 g with Rattus norvegicus [4]; 9 g in the data set on Rattus norvegicus [5]; 9.1 g in the data set with Rattus norvegicus [6]; 1 g in the data set with Rattus norvegicus [7]; 9.5 g with Rattus norvegicus [8].
With `CSc1ncccc1C(=O)NC(=S)N1CCNC1=S`, the IC50 in [2] worked out at 200000 nM.
Take `COc1cccc(C(=O)/N=C2\SSC3=NCCN32)c1`: the IC50 in data set [1] was 400 nM; in data set [2] it was 310 nM.
For `O=C(/N=C1\SSC2=NCCN21)c1ccccc1F` the same measures were 100 nM and 350 nM.
With `O=C(/N=C1\SSC2=NCCN21)c1cccs1`, the Activity result in the data set filed under Rattus norvegicus [9] was “Non-toxic”; with Rattus norvegicus [10] it was 6 g; in the data set with Rattus norvegicus [13] it was “Toxic”; with Rattus norvegicus [15] it was 6 g; with Rattus norvegicus [16], 4 g; in the data set on Rattus norvegicus [5] it was 6 g. Further, the Activity in the data set with Rattus norvegicus [20] is on record as 11 g; with Rattus norvegicus [21], “Toxic”; in the data set on Rattus norvegicus [23], “Non-toxic”; in the data set with Rattus norvegicus [6], 8.1 g; in the data set on Rattus norvegicus [26], 2 g; with Rattus norvegicus [27], “Toxic”. For the same compound, the Activity result was “<=1 g” with Rattus norvegicus [28]; “<=5 g” with Rattus norvegicus [30]; “Dose-dependent effect” in the data set with Rattus norvegicus [31]; 8 g with Rattus norvegicus [32]; 4 g in the data set with Rattus norvegicus [34]; 17 g with Rattus norvegicus [36]. Also, the Activity with Rattus norvegicus [37] worked out at 3 g; in the data set with Rattus norvegicus [38], 5 g; in the data set with Rattus norvegicus [39] it was 4 g. Further, the “fold change (FC)” value with Rattus norvegicus [11] is given as 4; with Rattus norvegicus [12] it was 5; with Rattus norvegicus [14], 6; with Rattus norvegicus [33], 3. Moreover, the IC50 in [1] came out at 100 nM; in [2], 420 nM. In addition, the result in the data set with Rattus norvegicus [17], in the data set with Rattus norvegicus [18], with Rattus norvegicus [19], in the data set on Rattus norvegicus [22], in the data set on Rattus norvegicus [24] and with Rattus norvegicus [29] was Active. For the same compound, in the data set with Rattus norvegicus [35], the outcome was Active. For the same compound, the “inhibition (INH)” value in the data set on Rattus norvegicus [25] was “>=50%”.
Take `O=C(/N=C1\SSC2=NCCN21)c1cnn(-c2ccc(Cl)cc2)c1C(F)(F)F`: the IC50 in data set [2] stood at 190 nM.
Take `O=C(/N=C1\SSC2=NCCN21)c1ccco1`: the 50% inhibitory concentration (IC50) in data set [1] came to 110 nM; in [2], 250 nM.
`O=C(/N=C1\SSC2=NCCN21)c1ccc(F)cc1F`: the IC50 stood at 190 nM in data set [1] and 410 nM in [2].
Regarding `O=C(/N=C1\SSC2=NCCN21)c1ccc(F)cc1`, the 50% inhibitory concentration (IC50) in data set [1] turned out to be 200 nM; in data set [2], 370 nM. The figures for the Activity with Rattus norvegicus [3], in the data set on Rattus norvegicus [6] and with Rattus norvegicus [8] were 8.5 g, 7.93 g and 4.03 g, respectively.

Usually IC50 stands for the point on the concentration scale where inhibition reaches its midpoint.
